Assay results from ChEMBL document CHEMBL1201862, “PubChem BioAssay data set” (2004).
Calls of active or inactive are those of the source.

What was measured:
[1] = NIH-3T3 fibroblast cytotoxicity, dose response, cytotoxicity control, cell-based, fluorescence, Alamar Blue, secondary assay (AID 2327); type: functional;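 further: NIH-3T3 mouse fibroblasts cultured with fluconazole at 8 µg/mL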
[2] = C. albicans growth with fluconazole, confirmation, fluorescence, retest (AID 2467); type: functional, cell-based
[3] = inhibitors of intracellular T. cruzi replication, confirmation, NIH3T3 host cells, beta-gal luminescence (AID 2044); type: functional, cell-based;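 further: intracellular parasites grown in NIH/3T3 mouse fibroblasts as host cells; luminescent beta-galactosidase reporter signal from transgenic T. cruzi replicating inside host cells; inhibitors lower the luminescence signal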
[4] = target: T1, Calpain-2 catalytic subunit (Sus scrofa, UniProt P43367); test: pig calpain II inhibitor potency, dose response, biochemical, fluorogenic peptide substrate (AID 1420); type: functional
T1 sequence (P43367 whole entry): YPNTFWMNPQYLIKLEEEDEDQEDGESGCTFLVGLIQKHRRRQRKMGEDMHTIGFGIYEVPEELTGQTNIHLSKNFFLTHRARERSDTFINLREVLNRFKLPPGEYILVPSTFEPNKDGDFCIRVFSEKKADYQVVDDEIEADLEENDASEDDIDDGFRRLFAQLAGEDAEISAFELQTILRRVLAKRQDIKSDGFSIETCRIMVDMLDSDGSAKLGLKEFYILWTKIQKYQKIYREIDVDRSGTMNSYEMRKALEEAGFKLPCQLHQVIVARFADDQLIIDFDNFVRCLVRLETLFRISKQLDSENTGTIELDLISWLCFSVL

[5] = cytotoxicity toward NIH3T3 fibroblasts, dose response, counter-screen, cell-based, ATP luminescence, mouse fibroblasts (AID 2010); type: functional;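 further: cells exposed to compound for about 90 hours before reading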
[6] = inhibitors of HIV Env-driven cell fusion, dose response, cherry-pick (AID 652057); type: functional, cell-based
Galanin receptor type 3 = target: T2, Galanin receptor type 3 (Homo sapiens, UniProt O60755); test: Fluorescence-based cell-based primary high throughput dose response assay to identify antagonists of the Galanin Receptor 3 (GalR3).; type: functional
T2 sequence (O60755 whole entry): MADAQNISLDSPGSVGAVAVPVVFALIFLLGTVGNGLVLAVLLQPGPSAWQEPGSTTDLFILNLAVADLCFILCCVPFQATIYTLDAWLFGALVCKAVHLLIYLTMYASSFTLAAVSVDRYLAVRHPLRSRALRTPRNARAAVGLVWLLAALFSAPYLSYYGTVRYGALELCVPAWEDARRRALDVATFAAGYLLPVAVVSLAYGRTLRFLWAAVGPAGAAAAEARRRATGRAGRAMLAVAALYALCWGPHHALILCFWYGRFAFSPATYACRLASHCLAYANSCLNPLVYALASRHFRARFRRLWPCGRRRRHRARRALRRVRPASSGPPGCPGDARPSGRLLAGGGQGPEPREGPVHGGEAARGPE

cells [7] = type: functional, cell-based; conditions: HEK-CNG
[8] = CEM21 lymphoblast cell cytotoxicity, dose response, cytotoxicity control for viral fusion inhibitor project, CellTiter-Glo luminescence, cherry-picked (AID 652042); type: functional, cell-based;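 further: potency for signal decrease meaning cytotoxicity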
[9] = ZM109 Env clade C HIV-1 fusion inhibitors, dose response, HeLa effector, CEM target cells, luciferase, cherry-pick (AID 652058); type: functional, cell-based
Paired box protein Pax-8 = Paired box protein Pax-8 (Homo sapiens, UniProt Q06710); test: inhibitors of PAX8-driven TPO luciferase reporter, dose response, RMG-I cells, cherry-pick (AID 687027); type: functional, cell-based;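 further: luciferase reporter driven by Pax8 target thyroperoxidase promoter measured by SteadyGlo luminescence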
[10] = inhibitors of clade B AD8 Env fusion, dose response, cell-based, cherry-pick (AID 652062); type: functional;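 further: luciferase signal from cell-cell fusion driven by HIV-1 clade B AD8 Env; potency is for inhibitors of fusion seen as a drop in luminescence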
cells [11] = test: cells
HEK293 = test: inhibitors of LMP1-driven NF-kB reporter, dose response, cell-based, HEK293, luciferase, cherry-pick (AID 588343); type: functional; conditions: Homo sapiens
Interleukin-8 [12] = target: T3, Interleukin-8 (Homo sapiens, UniProt P10145); test: Dose Response confirmation of uHTS small molecule hits for cystic fibrosis induced NFkb Inhibitors in a TNFa-induced IL8 counterscreen.; type: functional; conditions: read-out: IC50_Mean
Interleukin-8 [13] = target: T3, Interleukin-8; test: Dose Response confirmation of uHTS small molecule hits for cystic fibrosis induced NFkb Inhibitors in a PAF-induced IL8 counterscreen.; type: functional; conditions: read-out: IC50_Mean
[14] = target: Botulinum neurotoxin type F (Clostridium botulinum, UniProt P30996); test: High-throughput multiplex microsphere dose response for inhibitors of toxin protease, specifically Botulinum neurotoxin light chain F protease, compounds from Cherry Pick 02.; type: functional; conditions: read-out: EC50_MICROM
[15] = LMP1-driven NF-kB reporter inhibition, dose response, cell-based, luciferase reporter, luminescence, dry powder, set 2 (AID 624376); type: functional
[16] = Luminescence Cell-Based Dose Retest to Confirm Inhibitors of Cancer Stem Cells. [Related pubchem assays (depositor defined):AID2717, AID2721]; type: functional; conditions: Homo sapiens
Vero = test: Vero cell toxicity, dose response, cytotoxicity control, plate reader, cherry-pick samples (AID 687020); type: functional, cell-based; conditions: Chlorocebus sabaeus
BHK-21 = test: BHK-21 cell toxicity, dose response, cytotoxicity control, plate reader, cherry-pick samples (AID 687030); type: functional, cell-based; conditions: Mesocricetus auratus
A549 = test: A549 cell toxicity, dose response, cytotoxicity control, plate reader, cherry-pick samples (AID 687028); type: functional, cell-based; conditions: Homo sapiens
Beta-galactosidase = Beta-galactosidase (Escherichia coli, UniProt Q8VNN2); test: Dose response counterscreen for EBI2 assay utilizing the enzyme, b-galactosidase.; type: functional
[17] = target: T4, Carboxy-terminal domain RNA polymerase II polypeptide A small phosphatase 1 (Homo sapiens, UniProt Q9GZU7); test: inhibitors of CTDSP1, concentration-response testing, biochemical assay, absorbance-based, actives from ultra-high-throughput screening (AID 540297); type: functional
T4 sequence (Q9GZU7 whole entry): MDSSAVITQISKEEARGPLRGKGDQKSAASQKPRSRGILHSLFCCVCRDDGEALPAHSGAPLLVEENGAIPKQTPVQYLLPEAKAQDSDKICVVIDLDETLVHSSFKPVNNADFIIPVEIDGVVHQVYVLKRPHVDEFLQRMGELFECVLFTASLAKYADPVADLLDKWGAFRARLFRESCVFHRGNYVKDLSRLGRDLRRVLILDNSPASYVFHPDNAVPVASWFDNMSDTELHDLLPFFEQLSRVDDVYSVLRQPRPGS

[18] = AlphaScreen signal interference compounds, dose response, artefact control for ARNT-TACC3 interaction inhibitor project, biochemical, luminescence, cherry-pick (AID 651705); type: functional;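 further: AlphaScreen bead proximity signal that flags compounds interfering with the detection technology; potency reflects signal decrease which marks the compound as an assay artifact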
[19] = ARNT/TACC3 interaction disruptors, potency, confirmation, biochemical, AlphaScreen, cherry-picked samples (AID 651703); type: functional, Homo sapiens;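 further: His-tagged ARNT PAS-B domain paired with GST-TACC3 E629A dimer coactivator fragment; potency of inhibitors that break up the complex and lower AlphaScreen signal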
Caspase-6 = target: T5, Caspase-6 (Homo sapiens, UniProt P55212); test: human caspase-6 inhibitors, dose response, biochemical, VEID-R110 fluorescence, cherry-pick (AID 720632)
T5 sequence (P55212 whole entry): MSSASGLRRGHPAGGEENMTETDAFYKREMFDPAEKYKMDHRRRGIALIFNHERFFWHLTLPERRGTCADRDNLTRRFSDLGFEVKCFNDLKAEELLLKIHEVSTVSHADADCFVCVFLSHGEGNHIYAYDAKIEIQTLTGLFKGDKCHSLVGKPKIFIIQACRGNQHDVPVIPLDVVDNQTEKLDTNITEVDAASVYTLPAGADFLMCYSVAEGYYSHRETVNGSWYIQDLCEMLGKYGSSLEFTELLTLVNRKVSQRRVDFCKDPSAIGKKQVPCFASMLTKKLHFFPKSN

Beta Lactamase = Beta Lactamase (Pseudomonas aeruginosa, UniProt Q932Y6);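 further: confirmatory high-throughput screen measuring VIM-2 metallo-beta-lactamase inhibition by epi-absorbance in dose response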
Beta-lactamase [20] = target: Beta-lactamase (Pseudomonas aeruginosa, UniProt Q79MP6);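 further: biochemical dose-response test of metallo-beta-lactamase enzyme inhibition, read out by epi-absorbance; purified recombinant IMP-1 metallo-beta-lactamase with nitrocefin as substrate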
Beta-lactamase [21] = target: Beta-lactamase (Salmonella choleraesuis (strain SC-B67), UniProt Q5J463)
[22] = target: Low molecular weight phosphotyrosine protein phosphatase (Homo sapiens, UniProt P24666); type: functional; conditions: read-out: IC50_Mean
[23] = target: Botulinum neurotoxin type A (Clostridium botulinum (strain Hall / ATCC 3502 / NCTC 13319 / Type A), UniProt P0DPI1); test: High-throughput multiplex microsphere dose response for inhibitors of toxin protease, specifically Botulinum neurotoxin light chain A protease, compounds from Powder Set 01.; type: functional, Clostridium botulinum A str. ATCC 3502; conditions: read-out: EC50_MICROM
Lethal factor = Lethal factor (Bacillus anthracis, UniProt P15917); test: High-throughput multiplex microsphere dose response for inhibitors of toxin protease, specifically Lethal Factor protease, compounds from Powder Set 01.; type: functional, Bacillus anthracis str. A2012; conditions: read-out: EC50_MICROM
[24] = tested on: Streptococcus sp. 'group A'; test: growth inhibition of control SK(-) GAS strain, dose response, counter-screen for streptokinase expression inhibitor project, luminescence, kanamycin, BacTiterGlo, confirmation (AID 1900); type: functional, organism-based
Streptokinase A = target: T6, Streptokinase A (Streptococcus pyogenes serotype M1, UniProt P10520); test: S. pyogenes streptokinase expression inhibitors, potency, dose response, plasminogen activation absorbance, OD405 (AID 1914); type: functional, Streptococcus pyogenes M1 GAS;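 further: secreted streptokinase activity via plasminogen activation per viability signal from cell pellet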
T6 sequence (P10520 whole entry): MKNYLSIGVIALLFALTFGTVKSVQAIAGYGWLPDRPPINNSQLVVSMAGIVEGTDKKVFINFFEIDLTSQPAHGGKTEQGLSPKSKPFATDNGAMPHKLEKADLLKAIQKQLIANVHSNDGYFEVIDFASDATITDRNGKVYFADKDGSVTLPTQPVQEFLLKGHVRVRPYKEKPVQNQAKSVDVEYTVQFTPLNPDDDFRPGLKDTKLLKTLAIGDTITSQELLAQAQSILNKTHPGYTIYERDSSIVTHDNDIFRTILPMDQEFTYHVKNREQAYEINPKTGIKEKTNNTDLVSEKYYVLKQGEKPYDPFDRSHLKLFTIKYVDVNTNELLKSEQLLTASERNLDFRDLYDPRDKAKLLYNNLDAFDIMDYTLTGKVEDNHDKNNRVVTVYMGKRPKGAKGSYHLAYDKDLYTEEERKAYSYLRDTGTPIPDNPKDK

Streptococcus = test: Group A Streptococcus viability loss, dose response, counter-screen for streptokinase expression inhibitor project, luminescence, BacTiterGlo (AID 1915); type: functional, organism-based;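 further: potency for reduction of bacterial viability or growth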
[25] = target: Matrix metalloproteinase-14 (Homo sapiens, UniProt P50281); test: Dose Response confirmation of uHTS hits for a small molecule inhibitors of MT1-MMP activation in a fluorescence assay set 1.; type: functional
[26] = target: Potassium voltage-gated channel subfamily KQT member 2 (Rattus norvegicus, UniProt O88943); test: KCNQ2 potassium channel inhibitors, dose response, cell-based, automated electrophysiology, set II, rat KCNQ2 (AID 588637); type: functional
[27] = target: Tyrosine-protein phosphatase non-receptor type 11 (Homo sapiens, UniProt Q06124); test: SHP2 phosphatase inhibition, dose response, selectivity assay for STEP inhibitor project, biochemical (AID 602367); type: functional; conditions: read-out: IC50_Mean
[28] = target: Tyrosine-protein phosphatase non-receptor type 5 (Homo sapiens, UniProt P54829); test: STEP phosphatase inhibitors, confirmation, biochemical, fluorescence intensity, uHTS hits (AID 602372); type: functional; conditions: read-out: IC50_Mean
[29] = target: Dual specificity protein phosphatase 3 (Homo sapiens, UniProt P51452); test: VHR phosphatase inhibition, dose response, selectivity assay for STEP inhibitor project, biochemical (AID 602374); type: functional; conditions: read-out: IC50_Mean
[30] = CRF-BP/CRF-R2 complex antagonists, dose response, cell-based, uHTS hits, 384-well (AID 651639); type: functional, Homo sapiens; conditions: read-out: IC50_Mean

T3 sequence (P10145 whole entry): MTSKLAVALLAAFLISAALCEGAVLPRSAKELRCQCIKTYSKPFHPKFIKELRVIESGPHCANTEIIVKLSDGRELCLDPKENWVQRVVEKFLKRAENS
Sequence of Beta-lactamase (Salmonella choleraesuis (strain SC-B67), UniProt Q5J463) (Q5J463 whole entry): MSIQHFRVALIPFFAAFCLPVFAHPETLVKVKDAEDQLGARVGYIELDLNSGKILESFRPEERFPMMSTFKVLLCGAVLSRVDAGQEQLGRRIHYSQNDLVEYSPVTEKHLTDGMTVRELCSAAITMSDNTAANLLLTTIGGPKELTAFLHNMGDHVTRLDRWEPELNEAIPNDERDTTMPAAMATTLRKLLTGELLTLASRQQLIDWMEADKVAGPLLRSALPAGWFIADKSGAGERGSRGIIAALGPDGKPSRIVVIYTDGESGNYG
Sequence of Tyrosine-protein phosphatase non-receptor type 5 (P54829 whole entry): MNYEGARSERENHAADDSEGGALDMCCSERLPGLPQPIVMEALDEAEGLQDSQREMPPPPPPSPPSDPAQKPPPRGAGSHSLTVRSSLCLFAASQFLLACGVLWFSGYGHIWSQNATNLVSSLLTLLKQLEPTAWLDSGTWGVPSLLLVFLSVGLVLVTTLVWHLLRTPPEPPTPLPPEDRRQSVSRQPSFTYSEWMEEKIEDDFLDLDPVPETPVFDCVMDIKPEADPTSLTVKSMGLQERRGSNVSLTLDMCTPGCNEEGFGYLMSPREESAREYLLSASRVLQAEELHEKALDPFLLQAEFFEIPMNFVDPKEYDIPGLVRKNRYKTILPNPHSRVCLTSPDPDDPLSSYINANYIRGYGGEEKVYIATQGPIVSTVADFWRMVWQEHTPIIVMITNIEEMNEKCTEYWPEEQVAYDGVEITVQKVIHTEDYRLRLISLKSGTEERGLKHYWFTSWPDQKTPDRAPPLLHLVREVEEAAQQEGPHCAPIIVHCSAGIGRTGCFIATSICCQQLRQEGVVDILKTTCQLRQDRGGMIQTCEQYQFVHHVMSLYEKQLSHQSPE
Sequence of Botulinum neurotoxin type F (P30996 1-436 limits assumed): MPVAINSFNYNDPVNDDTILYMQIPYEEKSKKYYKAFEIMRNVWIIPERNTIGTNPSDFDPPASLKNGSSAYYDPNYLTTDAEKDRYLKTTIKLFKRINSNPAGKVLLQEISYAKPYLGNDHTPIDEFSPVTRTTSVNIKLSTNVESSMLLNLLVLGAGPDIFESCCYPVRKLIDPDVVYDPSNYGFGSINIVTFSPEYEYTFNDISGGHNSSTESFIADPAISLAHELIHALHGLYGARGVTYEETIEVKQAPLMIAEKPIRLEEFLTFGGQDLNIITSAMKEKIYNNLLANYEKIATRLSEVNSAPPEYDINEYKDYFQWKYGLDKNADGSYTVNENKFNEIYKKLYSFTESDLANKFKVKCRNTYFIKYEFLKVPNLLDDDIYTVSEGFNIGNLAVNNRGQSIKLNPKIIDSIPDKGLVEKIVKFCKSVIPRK
Sequence of Paired box protein Pax-8 (Q06710 whole entry, the tested form may be a part): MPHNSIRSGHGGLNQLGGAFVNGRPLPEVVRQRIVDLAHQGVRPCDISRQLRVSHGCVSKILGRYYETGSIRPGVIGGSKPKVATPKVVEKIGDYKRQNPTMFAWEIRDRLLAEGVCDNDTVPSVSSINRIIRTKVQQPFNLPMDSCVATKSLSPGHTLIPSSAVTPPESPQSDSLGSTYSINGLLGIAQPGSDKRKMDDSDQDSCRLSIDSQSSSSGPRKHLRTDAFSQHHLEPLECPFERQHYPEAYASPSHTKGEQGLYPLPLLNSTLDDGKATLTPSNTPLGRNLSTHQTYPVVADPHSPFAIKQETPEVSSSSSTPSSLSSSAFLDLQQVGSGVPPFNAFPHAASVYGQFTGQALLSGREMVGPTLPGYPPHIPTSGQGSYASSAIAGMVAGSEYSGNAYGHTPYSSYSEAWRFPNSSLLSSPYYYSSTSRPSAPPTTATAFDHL
Sequence of Low molecular weight phosphotyrosine protein phosphatase (P24666 whole entry): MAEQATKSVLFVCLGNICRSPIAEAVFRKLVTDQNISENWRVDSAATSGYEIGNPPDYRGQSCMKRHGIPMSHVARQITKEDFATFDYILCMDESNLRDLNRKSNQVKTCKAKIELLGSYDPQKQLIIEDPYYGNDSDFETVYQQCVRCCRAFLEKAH
Sequence of Lethal factor (P15917 whole entry): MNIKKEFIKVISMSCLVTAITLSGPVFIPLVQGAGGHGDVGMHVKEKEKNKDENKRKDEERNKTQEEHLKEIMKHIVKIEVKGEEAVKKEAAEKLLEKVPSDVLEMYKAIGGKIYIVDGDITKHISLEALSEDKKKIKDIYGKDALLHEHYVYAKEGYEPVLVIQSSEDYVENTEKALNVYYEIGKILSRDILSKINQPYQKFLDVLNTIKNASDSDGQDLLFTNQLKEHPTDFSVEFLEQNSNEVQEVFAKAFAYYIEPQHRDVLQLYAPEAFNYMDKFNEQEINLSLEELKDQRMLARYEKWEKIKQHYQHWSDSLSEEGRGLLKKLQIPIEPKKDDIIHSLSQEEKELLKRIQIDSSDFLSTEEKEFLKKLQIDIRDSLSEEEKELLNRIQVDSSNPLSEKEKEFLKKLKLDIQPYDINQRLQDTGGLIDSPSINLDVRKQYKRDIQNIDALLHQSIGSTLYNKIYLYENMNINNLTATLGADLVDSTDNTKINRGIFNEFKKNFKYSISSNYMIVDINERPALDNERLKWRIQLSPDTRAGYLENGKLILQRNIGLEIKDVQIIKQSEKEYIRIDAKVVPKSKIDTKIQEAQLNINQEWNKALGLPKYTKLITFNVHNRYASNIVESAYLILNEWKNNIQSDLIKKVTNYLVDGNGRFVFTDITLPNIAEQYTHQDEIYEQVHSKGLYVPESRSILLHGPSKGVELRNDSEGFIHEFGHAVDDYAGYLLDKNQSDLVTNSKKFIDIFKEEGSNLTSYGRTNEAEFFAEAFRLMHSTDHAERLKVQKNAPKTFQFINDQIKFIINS
Sequence of Potassium voltage-gated channel subfamily KQT member 2 (O88943 whole entry): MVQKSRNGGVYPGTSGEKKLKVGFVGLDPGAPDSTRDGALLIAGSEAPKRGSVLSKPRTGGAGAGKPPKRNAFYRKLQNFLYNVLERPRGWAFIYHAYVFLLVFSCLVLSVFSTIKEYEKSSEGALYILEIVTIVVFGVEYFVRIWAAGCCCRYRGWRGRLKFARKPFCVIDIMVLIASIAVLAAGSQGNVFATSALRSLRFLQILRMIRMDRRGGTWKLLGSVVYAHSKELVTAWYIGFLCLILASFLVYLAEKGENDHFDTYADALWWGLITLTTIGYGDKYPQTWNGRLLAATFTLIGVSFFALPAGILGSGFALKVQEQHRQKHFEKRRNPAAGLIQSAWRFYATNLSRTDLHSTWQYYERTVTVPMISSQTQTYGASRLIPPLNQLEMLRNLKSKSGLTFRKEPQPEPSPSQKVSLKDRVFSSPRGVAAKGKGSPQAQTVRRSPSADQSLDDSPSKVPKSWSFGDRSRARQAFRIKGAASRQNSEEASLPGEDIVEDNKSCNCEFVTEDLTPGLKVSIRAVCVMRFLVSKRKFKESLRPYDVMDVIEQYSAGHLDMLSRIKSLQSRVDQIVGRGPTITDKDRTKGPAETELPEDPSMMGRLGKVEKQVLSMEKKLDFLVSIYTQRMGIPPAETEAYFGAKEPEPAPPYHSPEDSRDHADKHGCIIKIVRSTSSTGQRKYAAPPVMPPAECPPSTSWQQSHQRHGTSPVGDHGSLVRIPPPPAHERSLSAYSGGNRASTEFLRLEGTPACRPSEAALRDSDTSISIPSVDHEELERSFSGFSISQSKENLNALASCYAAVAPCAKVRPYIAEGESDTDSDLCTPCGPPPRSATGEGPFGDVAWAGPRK
Sequence of Beta Lactamase (Q932Y6 whole entry): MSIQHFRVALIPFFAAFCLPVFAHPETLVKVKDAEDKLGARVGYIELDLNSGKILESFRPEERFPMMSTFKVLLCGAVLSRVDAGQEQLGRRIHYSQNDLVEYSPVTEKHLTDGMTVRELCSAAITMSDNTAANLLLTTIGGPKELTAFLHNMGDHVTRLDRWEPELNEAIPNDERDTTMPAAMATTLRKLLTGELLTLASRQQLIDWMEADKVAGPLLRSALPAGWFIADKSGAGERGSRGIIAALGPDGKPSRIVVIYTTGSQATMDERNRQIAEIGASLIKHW
Sequence of Tyrosine-protein phosphatase non-receptor type 11 (Q06124 whole entry): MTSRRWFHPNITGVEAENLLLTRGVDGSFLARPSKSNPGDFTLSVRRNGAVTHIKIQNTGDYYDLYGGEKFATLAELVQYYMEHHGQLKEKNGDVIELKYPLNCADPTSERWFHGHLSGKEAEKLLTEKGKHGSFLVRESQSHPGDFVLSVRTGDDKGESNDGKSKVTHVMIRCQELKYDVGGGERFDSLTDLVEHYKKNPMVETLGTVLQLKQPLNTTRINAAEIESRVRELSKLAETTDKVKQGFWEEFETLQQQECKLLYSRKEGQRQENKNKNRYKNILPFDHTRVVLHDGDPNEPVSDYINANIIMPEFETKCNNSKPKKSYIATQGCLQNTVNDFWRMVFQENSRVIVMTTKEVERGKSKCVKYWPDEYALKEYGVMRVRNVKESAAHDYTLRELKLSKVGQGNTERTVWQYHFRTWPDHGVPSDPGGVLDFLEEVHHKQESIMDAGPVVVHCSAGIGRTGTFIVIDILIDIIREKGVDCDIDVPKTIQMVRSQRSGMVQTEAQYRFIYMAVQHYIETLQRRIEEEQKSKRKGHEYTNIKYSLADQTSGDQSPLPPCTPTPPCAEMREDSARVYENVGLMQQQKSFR
Sequence of Beta-lactamase (Pseudomonas aeruginosa, UniProt Q79MP6) (Q79MP6 whole entry): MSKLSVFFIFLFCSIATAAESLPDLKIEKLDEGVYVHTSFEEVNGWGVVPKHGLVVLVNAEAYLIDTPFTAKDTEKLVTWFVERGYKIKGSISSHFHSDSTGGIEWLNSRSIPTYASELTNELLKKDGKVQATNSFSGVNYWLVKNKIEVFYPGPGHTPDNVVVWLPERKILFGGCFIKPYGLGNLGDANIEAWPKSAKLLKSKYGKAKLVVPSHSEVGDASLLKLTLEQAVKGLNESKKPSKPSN

CCCCCCCn1c2c(c(=N)c3c1CCC3)CCCC2
EC50 [1]: > 160 µM (inactive)
EC50 [2]: 2.79 µM (active)
EC50 [3]: < 0.1 µM (active)
IC50 [4]: 16.7 µM (not active)
EC50 [5]: > 60 µM (not active)
AC50 [6]: 3.53 µM (active)
IC50 (Galanin receptor type 3): > 1.11 µM (active)
EC50 (cells [7]): 27.7 µM (inactive)
AC50 [8]: 6.62 µM (active)
AC50 [9]: 3.24 µM (active)
AC50 (Paired box protein Pax-8): 0.677 µM (active)
AC50 [10]: 2.6 µM (active)
EC50 (cells [11]): 0.006 µM (active)

O=C(Nc1ccc(C(=O)N2CCOCC2)cc1)Nc1cccc(C(F)(F)F)c1
AC50 (HEK293): 3.04 µM (active)
IC50 (Interleukin-8 [12]): > 79 µM (inactive)
IC50 (Interleukin-8 [13]): 41.9 µM (inactive)

Cc1cc2nc(-c3cccc(Br)c3)c(Cc3cccc(Cl)c3)n2c(C)c1Br
EC50 [14]: > 20 µM (inactive)

O=C(Cc1ccccn1)NCC[C@H]1CC[C@H](NC(=O)Nc2ccc(Cl)cc2)[C@H](CO)O1
AbsAC35 [15]: 142.06 µM

CC1CCCN(CCCOc2ccc(Br)cc2Cl)C1 (centres undefined)
AC50 [16]: 8.98 µM (active)
AC50 (Vero): 25.2 µM (active)
AC50 (BHK-21): 38.8 µM (active)
AC50 (A549): 27.2 µM (active)

O=C(/C=C/c1ccc(Cl)cc1)N1CCN(Cc2ccccc2)CC1
IC50 (Beta-galactosidase): > 80 µM (inactive)

COc1ccc(CC(=O)Nc2ncc([N+](=O)[O-])s2)cc1OC
EC50 [3]: 1.27 µM (active)
EC50 [5]: > 60 µM (not active)
IC50 [17]: 3.21 µM (active)
AC50 [18]: 117 µM (active)
AC50 [19]: 112 µM (active)
AC50 (Caspase-6): 2.89 µM (active)

CC(=O)N(c1cccc(C)c1)C1SC(=O)N(c2ccccc2)C1=O (centres undefined)
IC50 (Beta Lactamase): 54.3 µM (inactive)
IC50 (Beta-lactamase [20]): 30.8 µM (inactive)
IC50 (Beta-lactamase [21]): > 59.6 µM (inactive)

O=C(O)[C@@H]1[C@H]2C[C@H]3c4[nH]c5ccccc5c4CCN3C[C@@H]2CC[C@@H]1O
IC50 [22]: 67.6 µM (inactive)

COc1ccc(-c2cn3nc(-c4ccccc4)c(-c4ccccc4)nc3n2)cc1
EC50 [23]: 4 µM (active)
EC50 (Lethal factor): 3.3 µM (active)

N#CC(C#N)=NNc1ccc([N+](=O)[O-])cc1
EC50 [24]: 3.82 µM (active)
EC50 (Streptokinase A): > 150 µM (not active)
EC50 (Streptococcus): 9.99 µM (active)
IC50 [25]: 32.3 µM (inactive)

O=C(CN1C(=O)C(c2ccccc2)Oc2cccnc21)NCc1ccccc1F (centres undefined)
IC50 [26]: 1.81 µM (active)

Cc1ccc(NC(=O)CN2C(=O)S/C(=C\c3ccc(OCC(=O)O)c(Br)c3)C2=O)cc1
IC50 [27]: 6.33 µM (active)
IC50 [28]: > 80 µM (inactive)
IC50 [29]: 6.91 µM (active)

Cc1sc2nc(CN(Cc3cccs3)C(=O)NC3CCCCC3)nc(O)c2c1C
IC50 [30]: 19.7 µM (active)
